Measurements taken from US20230310542A1, “EPIGENETIC MODIFIERS TO TREAT RETINAL DEGENERATIONS” (priority 2022, published 2023).

How the values were obtained:
Assay type in all cases: in vivo, mouse
[1] = test system: WT mice retina; assay: RT-PCR retinal gene expression, WT mice
Protocol: Whole retinas were isolated from animals by removing the sclera and most of the retinal pigmented epithelium (RPE) layer under PBS. The right eye retinas from each animal were taken for RNA extraction, cDNA preparation and RT-PCR. Immediately after isolation, tissue was flash frozen in liquid nitrogen and stored at −80° C. Left eye retinas from each animal were subjected to fixation, cryopreservation, sectioning, and immunofluorescence staining. RNA extraction and purification followed the manufacturer's protocol from RNeasy Mini Kit and RNA shredder (Qiagen). […] Primers purchased from Integrated DNA Technologies (IDT). For quantitative real-time PCR we used 2× iQ-SYBR Green PCR supermix from Bio-Rad. Samples in triplicate were run on an iQ5 Multicolor Real Time PCR Detection System (Bio-Rad). The relative expression level for each gene was calculated by the 2-ΔΔCt method and normalized to GAPDH.

[2] = test system: rd10 mice; assay: GSK2879552 in artificial tears applied to the eyes of rd10 mice, rod gene expression; details: solution in artificial tears, daily to both eyes, 5 μl
Protocol: A solution of GSK2879552 was prepared in artificial tears and applied daily to both eyes of rd10 mice in a volume of 5 μl.

[3] = test system: rd10 mice; assay: Rod photoreceptor preservation in rd10 mice (photoreceptor rows in ONL, immunofluorescence)
Protocol: All inhibitors were diluted in 0.9% bacteriostatic sodium chloride (saline).
Retinas were fixed in 4% paraformaldehyde overnight at 4° C., washed in PBS, incubated in 5% sucrose/PBS for 30 min and then cryopreserved in 20% sucrose/PBS overnight at 4° C. Retinas were embedded in 2:1 mix of 20% sucrose and OCT (Sakura Finetek Torrance, CA) and stored at −80° C. Blocks with tissue samples were sectioned to 7-10 μm on a Cryostat Microtome HM550 (Thermo Fisher Scientific) and stored at −20° C. Antigen retrieval was performed by incubating the slides in 10 mM sodium citrate pH 6 for 30 min at 80° C. Double labeling immunohistochemistry was performed using fluorescent Alexa Fluor-conjugated secondary antibodies diluted 1:800 (Invitrogen, Carlsbad, California). Primary antibodies were diluted as follow: anti-H3K4me2 1:600, anti-H3K9me2 1:600, anti-RHO 1:50, anti-OPN1SW 1:400, anti-GFAP 1:1000, anti-IBA1 1:450 (AifI gene). […] The acquisition parameters were maintained constant for each set of experiments. Fluorescence intensity was assessed using ImageJ software (Bethesda, MD).

[4] = test system: H3K4me2, H3K9me2; assay: Chromatin immunoprecipitation (ChIP) on gene regulatory elements, WT retina; details: WT mice, GSK PN9 till PN24
Protocol: Lysate preparation for ChIP was carried out. In brief, 10 mouse retinas were rapidly isolated and rinsed in PBS on ice. Cell suspensions in PBS were crosslinked with 1% formaldehyde for 15 min at room temperature, followed by quenching with 1 M glycine, incubation on ice for 5 min, and centrifugation for 7 min at 4,000 rpm at 4° C. Pellets were resuspended in 500 μl L-CHIP buffer (1% SDS, 10 mM EDTA, 50 mM Tris-HCl pH 8.0), 1 mM PMSF and PI, sonicated twice at setting 3 for 10 sec on Sonic Dismembrator (Fisher Scientific, Model 100). Protein concentrations were adjusted to 1 mg/ml with L-CHIP buffer. ChIP was performed and subjected to quantitative PCR, primers for genomic regions are specified in Table 2.

[5] = test system: rd10 mice; assay: Visual function by OptoMotry optomotor reflex; details: GSK ESD
Protocol: A Cerebral Mechanics OptoMotry system (CerebralMechanics Inc.) was used to evaluate visual function in control and GSK ESD rd10 mice. Spatial frequency (SF) threshold and contrast sensitivity (CS) were assessed using a video camera to monitor optomotor reflex. CS was assessed at a SF of 0.092 cycles/degree. SF was assessed at 100% contrast. The CS and SF thresholds were identified as the highest values that elicited the reflexive head movement. […] CS were measured three times on PN33-35, when control mice were blind.

[6] = test system: Pde6b protein; assay: Anti-PDE6B Western blot of retina; details: rd10 mice, GSK PN9 till PN24 vs saline
Protocol: (§1) Both retinas from one animal were flash frozen together in liquid nitrogen and stored at −80° C. Samples for SDS-PAGE were prepared by resuspended retinas in 50 μl PBS. Laemmli sample buffer was added, samples were boiled for 10 min, resolved on Criterion TGX Precast Gel AnyKD (Bio-Rad), transferred to nitrocellulose membrane, and immunoblotted with antibodies anti-H3K9me2 or anti-H3K4me2 diluted 1:5000; anti-ACTB diluted 1:10000; anti-PDE6B (1:500). Secondary goat anti-rabbit/mouse HRP (Jackson Immuno-Research Laboratory, West Grove, PA) was diluted 1:5000. An ECL western blot detection system (Thermo Fisher Scientific) was used to visualize the bound of the primary antibody.

[7] = test system: H3K4me2, H3K9me2; assay: Anti-H3K4me2 and anti-H3K9me2 Western blot of WT retina; details: WT mice treated PN9 till PN24
Protocol: as §1

[8] = test system: rod nuclei; assay: Number of heterochromatin foci in rod nuclei, rd10 mice; details: rd10 + GSK, PN24

With `O=C(O)c1ccc(CN2CCC(CN[C@@H]3C[C@H]3c3ccccc3)CC2)cc1` [GSK, GSK2879552] the “expression of rod photoreceptor genes” value ([1]; WT mice treated PN9 till PN24) was “no changes”, the “expression of transcription factors of retina development and maturation” value ([1]; WT retinas, treated PN9 till PN24) was “slightly increased expression” and the “rod specific gene expression after topical application” value [2] was “Several rod specific genes were upregulated”. The “rows of photoreceptors remaining in the ONL” value ([3]; GSK 1.5 mg/kg i.p. daily, data not shown) was 5-6 rows, the RHO protein staining ([3]; GSK 4.2 mg/kg PN9 till PN24, vs saline) was “increased” and the “photoreceptor survival with dosing each second day” value ([3]; GSK 4.2 mg/kg each second day (ESD), PN9 till PN24) was “survived to essentially the same extent as with treatment each day”. For the same compound, the “rows of photoreceptors preserved in the ONL at PN24” value ([3]; GSK 4.2 mg/kg i.p. daily PN9 till PN24) was “more than 10 rows”, the “rod degeneration at end of short treatment” value ([3]; GSK from PN9 to PN17, examined at PN17) was “minimal degeneration” and the “rod degeneration one week after ending treatment” value ([3]; GSK from PN9 to PN17, examined at PN24) was “substantial loss of photoreceptors”. For the same compound, the “rod degeneration 21 days after ending treatment” value ([3]; GSK from PN9 to PN24, examined at PN45) was “substantial loss of cells”, the “rod degeneration, late start of treatment” value ([3]; GSK from PN15 to PN24, assayed at PN24) was “blocked further degeneration” and the “H3K4me2 at promoters/regulatory elements (Ccnd1, Sox2, Hes1, Rho, Pde6b)” value [4] was “increase in the methylation of H3K4”. For the same compound, the “H3K9me2 at regulatory elements of progenitor TF and rod specific genes” value [4] was “losing this inhibitory mark”, the “contrast sensitivity preserved relative to WT” value ([5]; 0.092 c/d, PN33-35) was “approximately 50%” and the “spatial frequency threshold (acuity)” value ([5]; 100% contrast, PN24-PN32 averaged, untreated around 0.085, WT maximum 0.4) was “around 0.240 cyc/deg”. For the same compound, the contrast sensitivity ([5]; at 0.092 c/d spatial frequency, PN33-35, WT maximum 95%) was 43.4+/−14.6%, the “vision preserved relative to WT acuity” value ([5]; rd10 mice) was “around 60%” and the “acuity over time PN24 to PN32” value ([5]; data not shown) was “slowly increased”. For the same compound, the “Pde6b protein in retina” value [6] was “three-fold increase”, the “global levels of H3K4me2” value [7] was “did not change significantly” and the “global levels of H3K9me2” value [7] was “No changes”. For the same compound, the “rod nuclei with three foci” value ([8]; untreated rd10 3%) was 20%, the “rod nuclei with two foci” value ([8]; untreated rd10 26%) was 45% and the “rod nuclei with one focus” value ([8]; untreated rd10 72%) was 35%.
